This note sets out measurements from ChEMBL document CHEMBL1287749, “Acetazolamide-based fungal chitinase inhibitors” (Bioorg Med Chem, 2010).

This experiment deals with T1, Endochitinase A1 (Aspergillus fumigatus) (UniProt Q873Y0).
T1 sequence (whole entry): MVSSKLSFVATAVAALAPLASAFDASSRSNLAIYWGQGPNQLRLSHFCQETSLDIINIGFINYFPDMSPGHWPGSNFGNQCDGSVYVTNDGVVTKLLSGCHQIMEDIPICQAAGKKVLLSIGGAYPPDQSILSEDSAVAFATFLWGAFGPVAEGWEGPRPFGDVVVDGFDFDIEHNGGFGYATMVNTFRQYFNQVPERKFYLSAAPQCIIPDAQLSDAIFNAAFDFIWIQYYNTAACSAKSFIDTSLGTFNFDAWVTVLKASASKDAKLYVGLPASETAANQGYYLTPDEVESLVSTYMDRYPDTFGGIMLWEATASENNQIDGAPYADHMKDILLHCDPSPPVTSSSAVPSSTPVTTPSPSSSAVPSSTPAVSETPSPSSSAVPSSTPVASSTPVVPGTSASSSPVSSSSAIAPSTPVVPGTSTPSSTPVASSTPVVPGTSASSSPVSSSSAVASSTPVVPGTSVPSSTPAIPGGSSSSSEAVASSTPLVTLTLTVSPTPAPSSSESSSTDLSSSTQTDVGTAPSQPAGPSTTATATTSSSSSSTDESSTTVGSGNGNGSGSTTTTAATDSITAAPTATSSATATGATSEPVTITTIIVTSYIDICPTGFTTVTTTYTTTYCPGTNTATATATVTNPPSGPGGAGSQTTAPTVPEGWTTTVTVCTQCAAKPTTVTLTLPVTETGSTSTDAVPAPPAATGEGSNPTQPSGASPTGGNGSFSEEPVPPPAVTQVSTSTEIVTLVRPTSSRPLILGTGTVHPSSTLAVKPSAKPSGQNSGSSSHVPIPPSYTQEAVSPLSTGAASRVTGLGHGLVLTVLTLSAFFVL
The note with it: 1 mM.

Active and inactive are the calls of the source. The calls are words filed in the database; no cut-off is given here.

For the compound `Nc1nnc(S(N)(=O)=O)s1`, the inhibition entry was “inactive”.
